Test results: patent EP1027888B1, “Osmotic system for delivery of solid amorphous dispersions of drugs” (Pfizer Products Inc., priority 1999, dated 2000)
Converted amounts (≈) assume the structure as drawn. One block for each compound: values may come before it.

Assays:
physchem = settings: water
[1] = dissolution in phosphate buffered saline (PBS) solution (Example 3); type: physicochemical; settings: 35 ml PBS solution
Method: For a comparative dissolution study, Control E, consisting of 35 mg of crystalline Drug 2 was prepared. The dissolution of drug was studied by placing two of the trilayer tablets and Control E each in 35 ml of a phosphate buffered saline (PBS) solution composed of 6 mM KH2PO4, 5 mM NaOH, 60 mM KC1 and 30 mM NaCl. The data for the trilayer tablet is the average of the values for the two tablets tested.

[2] = dissolution in phosphate-buffered solution pH 7.2 (Example 7); type: physicochemical; settings: 50 ml phosphate-buffered solution pH 7.2
Method: For a comparative dissolution study, Control G, consisting of 100 mg of crystalline Drug 2 was prepared. The dissolution of drug was studied by placing one each of the bi-layer tablet and Control G preparation containing an equal amount of Drug 2 in 50 ml of the phosphate-buffered solution of Example 3 (pH 7.2, osmotic pressure 5.3 atm) to simulate an intestinal environment of use.

[3] = dissolution in MFD solution (Example 8); type: physicochemical; settings: 40 ml MFD solution
Method: For a comparative dissolution study, Control H, consisting of 111.4 mg of the crystalline drug, was used. The dissolution of drug was studied by placing the bilayer tablet and Control H each in 40 ml of MFD solution.

[4] = dissolution in MFD solution (Example 6); type: physicochemical; settings: 50 ml MFD solution
Method: A Model Fasted Duodenum (MFD) solution was prepared to mimic the chemical environment of the small intestine, the solution comprising a phosphate-buffered saline solution containing 14.7 mM sodium taurocholic acid and 2.8 mM of 1-palmitoyl-2-oleyl-sn-glycero-3-phosphocholine with a pH of 6.5.
The data for the tri-layer tablet is the average of the values for the two tablets tested.

solubility (physchem): 80 µg/mL (≈ 175 µM)
MDC [1]: 171 µg/mL
[Drug] ([1]; time 0.3 hr): 99 µg/mL
[Drug] ([1]; time 1.5 hr): 148 µg/mL
[Drug] ([1]; time 2.0 hr): 165 µg/mL
[Drug] ([1]; time 3.0 hr): 137 µg/mL
[Drug] ([1]; time 4.0 hr): 142 µg/mL
[Drug] ([1]; time 12.0 hr): 157 µg/mL
[Drug] ([1]; time 20.0 hr): 171 µg/mL
MDC [2]: 77 µg/mL
[Drug] ([2]; time 0 hr): 0 µg/mL
[Drug] ([2]; time 1 hr): 59 µg/mL
[Drug] ([2]; time 2 hr): 72 µg/mL
[Drug] ([2]; time 4 hr): 72 µg/mL
[Drug] ([2]; time 8 hr): 77 µg/mL
[Drug] ([2]; time 12 hr): 71 µg/mL
[Drug] ([2]; time 18 hr): 71 µg/mL
[Drug] ([2]; time 24 hr): 75 µg/mL
Compound: O=C(N[C@@H](Cc1ccccc1)[C@@H](O)C(=O)N1C[C@@H](O)[C@@H](O)C1)c1cc2cc(Cl)ccc2[nH]1 [Drug 2]

Compound: CN[C@H]1CC[C@@H](c2ccc(Cl)c(Cl)c2)c2ccccc21 [sertraline]
MDC [3]: 401 µg/mL
[Drug] ([3]; time 0 hr): 0 µg/mL
[Drug] ([3]; time 0.2 hr): 278 µg/mL
[Drug] ([3]; time 0.3 hr): 401 µg/mL
[Drug] ([3]; time 0.7 hr): 341 µg/mL
[Drug] ([3]; time 1.5 hr): 217 µg/mL
[Drug] ([3]; time 2 hr): 188 µg/mL
[Drug] ([3]; time 3 hr): 168 µg/mL
[Drug] ([3]; time 4 hr): 152 µg/mL
[Drug] ([3]; time 6 hr): 160 µg/mL
[Drug] ([3]; time 10 hr): 137 µg/mL
[Drug] ([3]; time 14 hr): 135 µg/mL
[Drug] ([3]; time 24 hr): 191 µg/mL
AUC ([3]; up to 0 hr): 0 µg·min/mL
AUC ([3]; up to 0.2 hr): 830 µg·min/mL
AUC ([3]; up to 0.3 hr): 4,230 min·µg/mL
AUC ([3]; up to 0.7 hr): 11,650 min·µg/mL
AUC ([3]; up to 1.5 hr): 25,610 min·µg/mL
AUC ([3]; up to 2 hr): 31,700 min·µg/mL
AUC ([3]; up to 3 hr): 42,400 min·µg/mL
AUC ([3]; up to 4 hr): 52,000 min·µg/mL
AUC ([3]; up to 6 hr): 70,640 min·µg/mL
AUC ([3]; up to 10 hr): 106,200 min·µg/mL
AUC ([3]; up to 14 hr): 122,500 min·µg/mL

MDC [4]: 16 µg/mL
[Drug] ([4]; time 0 hr): 0 µg/mL
[Drug] ([4]; time 2 hr): 13 µg/mL
[Drug] ([4]; time 4 hr): 16 µg/mL
[Drug] ([4]; time 8 hr): 13 µg/mL
[Drug] ([4]; time 12 hr): 15 µg/mL
[Drug] ([4]; time 20 hr): 12 µg/mL
[Drug] ([4]; time 24 hr): 11 µg/mL
Compound: [R-(R*,S*)]-5-chloro-N-[2-hydroxy-3-[methoxymethylamino)-3-1-(phenylmethyl)propyl]propyl]-1H-indole-2-carboxamide [Drug 1]
